The source of these data is BindingDB's records for doi:10.3109/14756366.2011.599065 (Wuhan Textile University, 2012).

The target of experiment [1] is Urease subunit alpha (Helicobacter pylori (strain ATCC 700392 / 26695), UniProt P69997). Description: Urease Inhibition Assay. The following applies: pH 7.4; 4 °C. The procedure:
(§1) Briefly, 50 mL broth cultures (2.0 × 10^8 CFU/mL) were centrifuged (5000g, 4°C)to collect the bacteria, and after washing twice with phosphate-buffered saline (pH 7.4), the H. pylori precipitation was stored at −80°C. H. pylori was returnedto room temperature, and after the addition of 3 mL of distilled water and protease inhibitors, sonication was performed for 60 s. Following centrifugation(15,000g, 4°C), the supernatant was desalted through SephadexG-25 column (PD-10 columns, Amersham-Pharmacia Biotech, Uppsala, Sweden). The resultant crude urease solution was added to an equal volume of glycerol and stored at 4°C until use in the experiment. The mixture, containing 25 μL (4U) of H. pylori urease (100 mM HEPES, pH 6.8) and 25 μL of the test compounds of various concentrations, was preincubated for 3 h at room temperature in a 96-well assay plate. After preincubation, 0.2 mL of 100 mM HEPES (pH 6.8) buffer containing 500 mM urea and 0.002% phenol red were added and incubated at 37°C.

The target in experiment [2] is Urease subunit alpha (Helicobacter pylori (strain J99 / ATCC 700824) (Campylobacter pylori J99), UniProt I0ZGT0+I0ZGT1). Description: Urease Inhibition Assay. The note with it: pH 7.4; 4 °C. The procedure:
as §1

Where only a bound is given, the exact number is not on record here.

Chain of Urease subunit alpha (Helicobacter pylori (strain ATCC 700392 / 26695), UniProt P69997) (P14916 whole entry): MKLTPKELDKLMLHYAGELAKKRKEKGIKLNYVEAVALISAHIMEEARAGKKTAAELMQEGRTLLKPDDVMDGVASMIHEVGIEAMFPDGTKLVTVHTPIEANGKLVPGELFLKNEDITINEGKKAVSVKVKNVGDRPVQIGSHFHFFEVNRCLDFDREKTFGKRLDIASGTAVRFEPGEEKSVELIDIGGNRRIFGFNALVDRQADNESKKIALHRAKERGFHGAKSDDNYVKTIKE
Chain of Urease subunit alpha (Helicobacter pylori (strain ATCC 700392 / 26695), UniProt P69997) (P69997 whole entry): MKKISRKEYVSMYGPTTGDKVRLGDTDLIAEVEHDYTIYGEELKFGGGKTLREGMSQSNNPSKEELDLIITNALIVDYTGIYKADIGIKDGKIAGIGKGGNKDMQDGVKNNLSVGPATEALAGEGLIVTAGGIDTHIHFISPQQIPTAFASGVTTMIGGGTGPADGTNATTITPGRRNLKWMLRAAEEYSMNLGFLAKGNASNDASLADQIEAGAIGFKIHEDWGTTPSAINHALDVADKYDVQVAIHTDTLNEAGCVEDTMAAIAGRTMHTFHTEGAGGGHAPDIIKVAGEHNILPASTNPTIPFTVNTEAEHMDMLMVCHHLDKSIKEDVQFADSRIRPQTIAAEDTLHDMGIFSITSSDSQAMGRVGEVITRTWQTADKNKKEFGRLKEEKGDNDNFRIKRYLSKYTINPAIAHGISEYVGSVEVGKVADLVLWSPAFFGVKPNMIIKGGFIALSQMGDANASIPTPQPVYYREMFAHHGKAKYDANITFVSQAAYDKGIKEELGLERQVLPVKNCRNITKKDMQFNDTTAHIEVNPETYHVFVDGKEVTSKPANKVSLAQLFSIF
Chain of Urease subunit alpha (Helicobacter pylori (strain J99 / ATCC 700824) (Campylobacter pylori J99), UniProt I0ZGT0+I0ZGT1) (I0ZGT1 whole entry): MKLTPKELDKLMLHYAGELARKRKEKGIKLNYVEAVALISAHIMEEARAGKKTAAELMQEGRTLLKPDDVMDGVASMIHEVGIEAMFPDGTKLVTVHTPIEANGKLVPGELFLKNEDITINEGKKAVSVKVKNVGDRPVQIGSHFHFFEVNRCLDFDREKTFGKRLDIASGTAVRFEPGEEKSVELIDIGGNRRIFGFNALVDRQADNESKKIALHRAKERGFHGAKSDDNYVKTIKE
Chain of Urease subunit alpha (Helicobacter pylori (strain J99 / ATCC 700824) (Campylobacter pylori J99), UniProt I0ZGT0+I0ZGT1) (I0ZGT0 whole entry): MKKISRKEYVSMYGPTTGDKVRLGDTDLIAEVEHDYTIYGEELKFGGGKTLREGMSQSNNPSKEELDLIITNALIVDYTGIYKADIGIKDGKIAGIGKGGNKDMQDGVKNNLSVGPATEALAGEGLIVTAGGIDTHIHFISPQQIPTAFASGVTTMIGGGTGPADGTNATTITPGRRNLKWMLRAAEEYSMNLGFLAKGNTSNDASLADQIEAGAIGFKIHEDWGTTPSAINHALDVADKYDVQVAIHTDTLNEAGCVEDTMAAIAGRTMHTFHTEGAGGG

One may read the IC50 as the concentration that inhibits the measured activity by half. Lower therefore signals inhibition by little substance. Compound `NCc1ccccc1` came in with an IC50 in experiment [1] above 100 µM. In the case of `Cc1cnc(C(=O)O)cn1` [5-Methylpyrazine-2-carboxylic acid], the IC50 in experiment [2] was above 100 µM. `Cc1ccc(C(=O)O)cc1` [SAMPL4, O2]: the IC50 in experiment [1] is above 100 µM. As to `CC(=O)NO` [acetohydroxamic acid], in experiment [2], the IC50 came to 42.5 µM.
